pIC50: −log10 of the molar value.
Biological target: QPCTL (Homo sapiens (Human), UniProt Q9NXS2)
Assay: QPCTL inhibition, SensoLyte Green Glutaminyl Cyclase Activity Assay
Type: biochemical
Conditions: 0.8 nM 2x enzyme solution, 45 min at 37° C., 50 mM Tris pH 8.0, 1% DMSO

Sequence of QPCTL (Q9NXS2 whole entry, species assumed): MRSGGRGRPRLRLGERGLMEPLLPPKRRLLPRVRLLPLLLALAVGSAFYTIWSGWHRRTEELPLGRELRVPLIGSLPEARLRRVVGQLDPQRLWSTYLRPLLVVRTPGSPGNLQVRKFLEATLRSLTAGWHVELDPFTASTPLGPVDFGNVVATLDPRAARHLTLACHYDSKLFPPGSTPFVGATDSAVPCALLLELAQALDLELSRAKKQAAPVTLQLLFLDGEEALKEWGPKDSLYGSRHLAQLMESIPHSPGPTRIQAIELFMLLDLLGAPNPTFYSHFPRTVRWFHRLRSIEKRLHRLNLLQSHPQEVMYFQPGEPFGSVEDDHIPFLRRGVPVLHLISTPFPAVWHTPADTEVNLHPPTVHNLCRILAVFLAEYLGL

pIC50 | Structure (SMILES)
6.00 to 7.60 | Cc1nc(-c2cnn(C(F)(F)F)c2)ccc1[C@@H]1[C@H](C2CC2)C(=O)N1c1ccc2[nH]cnc2c1 (single isomer, unassigned) [Compound 68A]
> 8.70 | Cc1nc(-c2cnn(C(F)(F)F)c2)ccc1[C@H]1[C@@H](C2CC2)C(=O)N1c1ccc2[nH]cnc2c1 (single isomer, unassigned) [Compound 68B]
6.00 to 7.60 | O=C1[C@@H](C2CC2)[C@@H](c2c(F)cc(C3CC3)cc2F)N1c1ccc2[nH]cnc2c1 (single isomer, unassigned) [Compound 69A]
> 8.70 | O=C1[C@H](C2CC2)[C@H](c2c(F)cc(C3CC3)cc2F)N1c1ccc2[nH]cnc2c1 (single isomer, unassigned) [Compound 69B]
6.00 to 7.60 | Cc1nc(-c2ccc(C(F)(F)F)nn2)ccc1[C@@H]1[C@H](C2CC2)C(=O)N1c1ccc2[nH]cnc2c1 (single isomer, unassigned) [Compound 70A]
> 8.70 | Cc1nc(-c2ccc(C(F)(F)F)nn2)ccc1[C@H]1[C@@H](C2CC2)C(=O)N1c1ccc2[nH]cnc2c1 (single isomer, unassigned) [Compound 70B]
6.00 to 7.60 | Cc1ccc(-c2ccc([C@@H]3[C@H](C4CC4)C(=O)N3c3ccc4[nH]cnc4c3)c(C)n2)nn1 (single isomer, unassigned) [Compound 71A]
> 8.70 | Cc1ccc(-c2ccc([C@H]3[C@@H](C4CC4)C(=O)N3c3ccc4[nH]cnc4c3)c(C)n2)nn1 (single isomer, unassigned) [Compound 71B]
< 6.00 | Cc1nc(-n2cnc(C(F)(F)F)c2)ccc1[C@@H]1[C@H](C2CC2)C(=O)N1c1ccc2[nH]cnc2c1 (single isomer, unassigned) [Compound 72A]
> 8.70 | Cc1nc(-n2cnc(C(F)(F)F)c2)ccc1[C@H]1[C@@H](C2CC2)C(=O)N1c1ccc2[nH]cnc2c1 (single isomer, unassigned) [Compound 72B]
6.00 to 7.60 | Cc1cc(-n2cnc(C(F)(F)F)c2)ncc1[C@@H]1[C@H](C2CC2)C(=O)N1c1ccc2[nH]cnc2c1 (single isomer, unassigned) [Compound 73A]
> 8.70 | Cc1cc(-n2cnc(C(F)(F)F)c2)ncc1[C@H]1[C@@H](C2CC2)C(=O)N1c1ccc2[nH]cnc2c1 (single isomer, unassigned) [Compound 73B]
6.00 to 7.60 | Cc1cc(-n2cnc(C(F)(F)F)c2)ccc1[C@@H]1[C@H](C2CC2)C(=O)N1c1ccc2[nH]cnc2c1 (single isomer, unassigned) [Compound 74A]
> 8.70 | Cc1cc(-n2cnc(C(F)(F)F)c2)ccc1[C@H]1[C@@H](C2CC2)C(=O)N1c1ccc2[nH]cnc2c1 (single isomer, unassigned) [Compound 74B]
6.00 to 7.60 | O=C1[C@@H](C2CC2)[C@@H](c2ccc(-c3cnn(C(F)(F)F)c3)cc2Cl)N1c1ccc2[nH]cnc2c1 (single isomer, unassigned) [Compound 75A]
> 8.70 | O=C1[C@H](C2CC2)[C@H](c2ccc(-c3cnn(C(F)(F)F)c3)cc2Cl)N1c1ccc2[nH]cnc2c1 (single isomer, unassigned) [Compound 75B]
> 8.70 | O=C1[C@@H](C2CC2)[C@@H](c2ccc(-c3cnn(C(F)(F)F)c3)cc2C(F)(F)F)N1c1ccc2[nH]cnc2c1 (single isomer, unassigned) [Compound 76A]
< 6.00 | O=C1[C@H](C2CC2)[C@H](c2ccc(-c3cnn(C(F)(F)F)c3)cc2C(F)(F)F)N1c1ccc2[nH]cnc2c1 (single isomer, unassigned) [Compound 76B]
6.00 to 7.60 | O=C1[C@@H](C2CC2)[C@@H](c2c(F)cc(-c3ccc(C(F)(F)F)nn3)cc2F)N1c1ccc2[nH]cnc2c1 [Compound 52A]
< 6.00 | O=C1[C@@H](C2CC2)[C@@H](c2c(F)cc(-c3cnccn3)cc2F)N1c1ccc2[nH]cnc2c1 [Compound 53A]
